Assay results taken from US11498930B2 (BLUERAY THERAPEUTICS (SHANGHAI) CO., LTD., priority 2018, dated 2022).
pIC50: −log10 of the molar value. Read-outs that look alike come from different tables or passages of the source.

What was measured:
[1] = system: phosphorylation level of intracellular protein kinase (ERK) in MOLM13 cells; experiment: Phosphorylated protein kinase (p-ERK) cell experiment (AlphaLISA); assay type: cell-based; conditions: Homo sapiens, MOLM-13, MOLM13 cells
SHP2^E76A protein = SHP2^E76A protein (Homo sapiens (Human), UniProt Q06124, E76A); experiment: SHP2 enzyme activity inhibition experiment; assay type: biochemical
Outline: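 Compounds tested at 10 concentrations in 3-fold serial dilution. IC50 from a four-parameter Hill-slope nonlinear fit of enzyme activity versus concentration.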

MOLM-13 cells = experiment: MOLM-13 cell proliferation experiment; assay type: cell-based
Procedure: After 3 days, 5 µL of CellTiter-Glo reagent (Promega, ZG7572) was added to each well, and the plates were kept at room temperature in the dark for 10 minutes. The […] was detected by Spectra max i3 (Molecular Devices). The relative growth rate of the treated cells was compared with that of DMSO control.

[2] = p-ERK, 2 hours of cell treatment, Tables 2.1 and 2.2, read-out: IC50
[3] = SHP2 enzyme activity, Tables 1.1 and 1.2, read-out: IC50
[4] = Table 4, read-out: SHP2 enzyme activity IC50
[5] = Homo sapiens, MOLM-13, 72 h, MOLM-13 cell proliferation, 3 days, Tables 3.1 and 3.2, read-out: IC50
[6] = Homo sapiens, MOLM-13, read-out: MOLM-13 cell proliferation IC50

Chain of SHP2^E76A protein (Q06124 whole entry E76A): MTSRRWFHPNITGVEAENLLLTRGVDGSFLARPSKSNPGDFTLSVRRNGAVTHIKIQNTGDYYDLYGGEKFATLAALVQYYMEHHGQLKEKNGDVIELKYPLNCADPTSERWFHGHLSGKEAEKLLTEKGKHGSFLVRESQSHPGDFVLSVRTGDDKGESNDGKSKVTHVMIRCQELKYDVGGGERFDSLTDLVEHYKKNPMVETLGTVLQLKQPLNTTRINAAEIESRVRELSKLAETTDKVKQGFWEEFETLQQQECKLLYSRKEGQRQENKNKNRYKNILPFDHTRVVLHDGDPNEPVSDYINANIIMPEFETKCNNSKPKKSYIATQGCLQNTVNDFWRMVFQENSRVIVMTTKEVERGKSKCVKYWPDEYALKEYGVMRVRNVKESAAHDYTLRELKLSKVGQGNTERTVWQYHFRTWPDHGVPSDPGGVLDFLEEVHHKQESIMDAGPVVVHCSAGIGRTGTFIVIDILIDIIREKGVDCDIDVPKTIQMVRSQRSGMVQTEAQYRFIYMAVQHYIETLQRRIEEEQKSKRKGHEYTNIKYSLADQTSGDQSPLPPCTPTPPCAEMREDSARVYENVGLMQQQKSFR

N[C@@H]1COCC12CCN(c1ncc(Sc3cccc(Cl)c3Cl)c3nncn13)CC2 [(S)-8-(8-((2,3-dichlorophenyl)thio)-[1,2,4]triazolo[4,3-c]pyrimidin-5-yl)-2-oxa-8-azaspiro[4.5]decan-4-amine]
pIC50 ([1]; Table 4, read-out: p-ERK IC50): 6.77
pIC50 [1, 2]: 6.00 to 7.00
pIC50 (SHP2^E76A protein; [3]): > 7.00
pIC50 (SHP2^E76A protein; [4]): 7.70
pIC50 (MOLM-13 cells; [5]): 6.00 to 7.00
pIC50 (MOLM-13 cells; [6]): 6.05

N[C@@H]1COCC12CCN(c1ncc(Sc3ccnc(Cl)c3Cl)c3nccn13)CC2 [(S)-8-(8-((2,3-dichloropyridin-4-yl)thio)imidazo[1,2-c]pyrimidin-5-yl)-2-oxa-8-azaspiro[4.5]decan-4-amine]
pIC50 [1, 2]: 6.00 to 7.00
pIC50 (SHP2^E76A protein; [3]): > 7.00
pIC50 (MOLM-13 cells; [5]): 6.00 to 7.00

Nc1nccc(Sc2cnc(N3CCC4(CC3)COC[C@H]4N)n3cnnc23)c1Cl [(S)-8-(8-((2-amino-3-chloropyridin-4-yl)thio)-[1,2,4]triazolo[4,3-c]pyrimidin-5-yl)-2-oxa-8-azaspiro[4.5]decan-4-amine]
pIC50 [1, 2]: 6.00 to 7.00
pIC50 (SHP2^E76A protein; [3]): 6.00 to 7.00
pIC50 (MOLM-13 cells; [5]): 5.00 to 6.00

Nc1nccc(Sc2cnc(N3CCC4(CC3)COC[C@H]4N)n3ccnc23)c1Cl [(S)-8-(8-((2-amino-3-chloropyridin-4-yl)thio)imidazo[1,2-c]pyrimidin-5-yl)-2-oxa-8-azaspiro[4.5]decan-4-amine]
pIC50 [1, 2]: 6.00 to 7.00
pIC50 (SHP2^E76A protein; [3]): > 7.00
pIC50 (MOLM-13 cells; [5]): 6.00 to 7.00

Nc1cc(Sc2cnc(N3CCC4(CC3)COC[C@H]4N)n3ccnc23)c(Cl)c(Cl)n1 [(S)-8-(8-((6-amino-2,3-dichloropyridin-4-yl)thio)imidazo[1,2-c]pyrimidin-5-yl)-2-oxa-8-azaspiro[4.5]decan-4-amine]
pIC50 ([1]; Table 4, read-out: p-ERK IC50): 7.55
pIC50 [1, 2]: > 7.00
pIC50 (SHP2^E76A protein; [3]): > 7.00
pIC50 (SHP2^E76A protein; [4]): 8.05
pIC50 (MOLM-13 cells; [5]): > 7.00
pIC50 (MOLM-13 cells; [6]): 7.27

Cc1nc(N)cc(Sc2cnc(N3CCC4(CC3)COC[C@H]4N)n3ccnc23)c1Cl [(S)-8-(8-((6-amino-3-chloro-2-methyl-pyridin-4-yl)thio)imidazo[1,2-c]pyrimidin-5-yl)-2-oxa-8-azaspiro[4.5]decan-4-amine]
pIC50 ([1]; Table 4, read-out: p-ERK IC50): 6.80
pIC50 [1, 2]: 6.00 to 7.00
pIC50 (SHP2^E76A protein; [3]): > 7.00
pIC50 (SHP2^E76A protein; [4]): 7.47
pIC50 (MOLM-13 cells; [5]): 6.00 to 7.00
pIC50 (MOLM-13 cells; [6]): 6.47
pIC50 (MOLM-13 cells; MOLM-13 cell proliferation, 3 days, Tables 3.1 and 3.2, read-out: IC50): > 7.00
